The results in this text go back to ChEMBL document CHEMBL4610053, “Synthesis and biological evaluation of 2-quinolineacrylamides” (Bioorg Med Chem, 2020).

One assay has as its system A549. The assay is described as follows: Antiproliferative activity against human A549 cells assessed as reduction in cell viability incubated for 48 hrs by Sulforhodamine B assay. The assay is classed as functional. The following applies: A549, 48 h. On the technique in general: Sulforhodamine B stains cellular protein and so reports cell mass.
The subject of another assay is HCT-116. The assay is described as follows: Antiproliferative activity against human HCT116 cells assessed as reduction in cell viability incubated for 48 hrs by Sulforhodamine B assay. The assay is classed as functional. The following applies: HCT-116, 48 h.
The next assay deals with Histone deacetylase 1 (Homo sapiens, UniProt Q13547). The assay is described as follows: Inhibition of recombinant human C-terminal FLAG/His-tagged HDAC1 (1 to 482 residues) expressed in Sf21 insect cells by using RHK-K(Ac)-AMC as substrate measured after 60 mins by fluorescence assay.
Histone deacetylase 1, sequence (Q13547 whole entry, the tested form may be a part): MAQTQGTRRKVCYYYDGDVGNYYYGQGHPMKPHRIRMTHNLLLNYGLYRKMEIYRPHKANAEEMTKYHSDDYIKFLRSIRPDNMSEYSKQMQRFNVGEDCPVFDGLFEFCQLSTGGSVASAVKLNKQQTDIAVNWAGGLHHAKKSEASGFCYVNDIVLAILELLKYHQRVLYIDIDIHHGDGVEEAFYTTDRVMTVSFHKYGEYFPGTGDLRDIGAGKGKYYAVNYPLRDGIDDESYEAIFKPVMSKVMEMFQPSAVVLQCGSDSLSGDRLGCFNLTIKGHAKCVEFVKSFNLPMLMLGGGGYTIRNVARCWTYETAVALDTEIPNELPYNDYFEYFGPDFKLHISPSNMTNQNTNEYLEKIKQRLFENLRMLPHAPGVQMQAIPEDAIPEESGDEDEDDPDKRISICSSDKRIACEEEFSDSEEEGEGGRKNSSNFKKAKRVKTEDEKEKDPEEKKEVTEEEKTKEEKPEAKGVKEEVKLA
Another assay addresses Histone deacetylase 2 (Homo sapiens, UniProt Q92769). The assay is described as follows: Inhibition of recombinant human C-terminal GST-tagged HDAC2 (1 to 488 residues) expressed in insect cells using RHK-K(Ac)-AMC as substrate measured after 60 mins by fluorescence assay.
The target of assay [1] is T1, Protein deacetylase HDAC6 (Homo sapiens, UniProt Q9UBN7).
T1 sequence (Q9UBN7 whole entry): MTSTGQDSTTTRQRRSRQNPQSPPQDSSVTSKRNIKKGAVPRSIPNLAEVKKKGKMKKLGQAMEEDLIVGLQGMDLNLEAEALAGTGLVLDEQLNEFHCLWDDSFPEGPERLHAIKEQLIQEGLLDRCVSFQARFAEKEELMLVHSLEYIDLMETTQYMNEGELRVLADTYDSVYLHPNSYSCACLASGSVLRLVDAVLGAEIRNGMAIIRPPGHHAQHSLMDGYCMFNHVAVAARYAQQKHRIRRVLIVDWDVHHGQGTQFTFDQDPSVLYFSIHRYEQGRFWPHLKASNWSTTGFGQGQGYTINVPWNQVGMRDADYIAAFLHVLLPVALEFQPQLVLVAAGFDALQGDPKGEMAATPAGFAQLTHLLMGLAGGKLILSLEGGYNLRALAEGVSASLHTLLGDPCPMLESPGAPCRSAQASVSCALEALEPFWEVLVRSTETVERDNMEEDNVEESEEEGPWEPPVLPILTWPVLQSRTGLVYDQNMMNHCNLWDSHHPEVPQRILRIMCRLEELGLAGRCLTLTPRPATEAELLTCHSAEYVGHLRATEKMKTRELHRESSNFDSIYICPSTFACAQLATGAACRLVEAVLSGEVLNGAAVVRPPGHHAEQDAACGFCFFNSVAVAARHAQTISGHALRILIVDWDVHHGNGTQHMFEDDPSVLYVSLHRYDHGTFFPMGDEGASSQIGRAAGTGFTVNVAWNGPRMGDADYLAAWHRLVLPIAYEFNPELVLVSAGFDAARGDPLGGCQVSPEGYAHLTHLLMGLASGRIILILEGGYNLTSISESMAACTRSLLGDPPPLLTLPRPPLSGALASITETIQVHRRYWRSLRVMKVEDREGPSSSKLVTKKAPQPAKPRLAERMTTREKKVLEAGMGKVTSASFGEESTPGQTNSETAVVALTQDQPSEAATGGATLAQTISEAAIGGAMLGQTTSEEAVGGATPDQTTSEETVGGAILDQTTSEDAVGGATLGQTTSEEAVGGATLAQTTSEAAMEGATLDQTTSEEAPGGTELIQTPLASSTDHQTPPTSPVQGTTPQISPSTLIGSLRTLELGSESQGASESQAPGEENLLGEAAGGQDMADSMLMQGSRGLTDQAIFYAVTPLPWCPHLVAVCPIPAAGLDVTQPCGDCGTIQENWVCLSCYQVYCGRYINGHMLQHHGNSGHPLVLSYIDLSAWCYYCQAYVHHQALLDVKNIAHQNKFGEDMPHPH
The assay is described as follows: Inhibition of human HDAC6 using fluorogenic-(RHKKAc) as substrate by fluorescence assay.

The target of the next assay is T2, Histone deacetylase 8 (Homo sapiens, UniProt Q9BY41).
T2 sequence (Q9BY41 whole entry): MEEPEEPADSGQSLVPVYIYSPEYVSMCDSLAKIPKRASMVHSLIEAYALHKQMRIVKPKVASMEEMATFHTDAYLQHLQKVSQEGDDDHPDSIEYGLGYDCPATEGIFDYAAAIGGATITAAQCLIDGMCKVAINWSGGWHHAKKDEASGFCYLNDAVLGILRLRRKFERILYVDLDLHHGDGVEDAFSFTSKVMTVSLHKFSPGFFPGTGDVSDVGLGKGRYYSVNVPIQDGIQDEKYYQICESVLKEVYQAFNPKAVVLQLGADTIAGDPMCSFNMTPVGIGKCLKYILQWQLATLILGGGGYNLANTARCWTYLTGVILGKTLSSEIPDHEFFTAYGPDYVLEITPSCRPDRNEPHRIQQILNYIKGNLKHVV
The assay is described as follows: Inhibition of recombinant human C-terminal His-tagged HDAC8 (1 to 377 residues) expressed in insect cells using RHK-K(Ac)-AMC as substrate measured after 60 mins by fluorescence assay.

For assay [2], the species on record is Homo sapiens. The assay is described as follows: Selectivity ratio of IC50 for recombinant human C-terminal FLAG/His-tagged HDAC1 (1 to 482 residues) expressed in Sf21 insect cells to IC50 of human HDAC6.
Assay [3] is filed under the species Homo sapiens. The assay is described as follows: Selectivity ratio of IC50 for recombinant human C-terminal GST-tagged HDAC2 (1 to 488 residues) expressed in insect cells to IC50 of human HDAC6.
The species named for assay [4] is Homo sapiens. The assay is described as follows: Selectivity ratio of IC50 for recombinant human C-terminal His-tagged HDAC8 (1 to 377 residues) expressed in insect cells to IC50 of human HDAC6.
The target of assay [5] is Class 1 histone deacetylase (Homo sapiens) (UniProt Q13547+O15379+Q92769+Q9BY41). The assay is described as follows: Inhibition of class 1 HDAC in human HCT116 cells assessed as increase in H3 acetylation measured after 48 hrs by Western blot analysis. The format is cell-based. The following applies: HCT-116.
Assay [6] has as its target T3, Protein deacetylase HDAC6 (Homo sapiens) (UniProt Q9UBN7).
T3 sequence (whole entry): T1 sequence (Q9UBN7 whole entry)
The assay is described as follows: Inhibition of HDAC6 in human HCT116 cells assessed as increase in tubulin acetylation measured after 48 hrs by Western blot analysis. The assay is classed as cell-based. The following applies: HCT-116. A general note: In western blotting, separated proteins are transferred to a membrane and probed.

Histone deacetylase 2, sequence (Q92769 whole entry, the tested form may be a part): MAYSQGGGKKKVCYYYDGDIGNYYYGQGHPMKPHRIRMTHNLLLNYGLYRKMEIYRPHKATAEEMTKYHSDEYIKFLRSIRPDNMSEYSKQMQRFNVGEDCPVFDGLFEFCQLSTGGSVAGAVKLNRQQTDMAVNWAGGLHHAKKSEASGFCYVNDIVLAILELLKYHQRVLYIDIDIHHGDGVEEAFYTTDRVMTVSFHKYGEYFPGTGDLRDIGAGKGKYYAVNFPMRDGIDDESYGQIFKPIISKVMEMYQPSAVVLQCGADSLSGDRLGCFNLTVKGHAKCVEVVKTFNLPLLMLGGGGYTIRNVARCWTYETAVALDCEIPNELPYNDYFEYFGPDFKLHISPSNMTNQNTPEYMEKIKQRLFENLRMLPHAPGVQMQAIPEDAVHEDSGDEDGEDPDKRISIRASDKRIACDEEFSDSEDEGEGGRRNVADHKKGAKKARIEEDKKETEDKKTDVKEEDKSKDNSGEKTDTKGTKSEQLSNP

What is called GI50 is the concentration at which growth is held to half of that of the control. `Cc1ccc(C(=O)c2ccc3nc(/C=C/C(=O)NO)ccc3c2)cc1`: the GI50 worked out at 2580 nM with A549 and 2510 nM in the assay on HCT-116.
Take `CN1CCc2c(c3ccccc3n2Cc2ccc(C(=O)NO)cc2)C1` [TUBASTATIN A]: the GI50 in the assay with A549 and in the assay on HCT-116 was more than 5000 nM throughout.
The IC50 is the concentration that inhibits the measured activity by half. As to `COc1cc(Oc2ccc3nc(/C=C/C(=O)NO)ccc3c2)cc(OC)c1OC`, the 50% growth inhibitory concentration (GI50) in the assay on A549 came to 2430 nM; in the assay on HCT-116, 740 nM. For the same compound, the IC50 on Histone deacetylase 1 (read-out: IC50) amounted to 1770 nM; on Histone deacetylase 2 (read-out: IC50), 18.7 nM; in assay [1], 26.5 nM; at Histone deacetylase 8, 2820 nM. Moreover, the values for the Ratio IC50 in the assay filed under Homo sapiens [2], in the assay filed under Homo sapiens [3] and in the assay filed under Homo sapiens [4] were 67, 0.7 and 106, respectively. Also, the inhibition entry in assay [5] and in [6] was “Dose-dependent effect” throughout.
Take `O=C(/C=C/c1ccc2cc(C(=O)c3ccc(F)cc3)ccc2n1)NO`: the GI50 turned out to be 1260 nM in the assay on A549 and 1840 nM in the assay with HCT-116.
Taken in the same sequence, the figures for `COc1ccc(C(=O)c2ccc3nc(/C=C/C(=O)NO)ccc3c2)cc1` were 1890 nM and 2300 nM.
For `COc1ccc(C(=O)c2ccc3nc(/C=C/C(=O)NO)ccc3c2)cc1OC` the same measures were 3310 nM and 1780 nM.
For the compound `COc1ccc(Oc2ccc3nc(/C=C/C(=O)NO)ccc3c2)cc1`, the GI50 was 3200 nM in the assay with A549 and 1820 nM with HCT-116. The IC50 was more than 10000 nM at Histone deacetylase 1 (read-out: IC50), “Not Active” on Histone deacetylase 2, 20.7 nM in assay [1] and 7750 nM at Histone deacetylase 8. For the same compound, the Ratio IC50 in the assay listed under Homo sapiens [2] is more than 483; in the assay listed under Homo sapiens [4], 374. Moreover, the inhibition entry in assay [5] and in assay [6] was “Dose-dependent effect” throughout.
Turning to `COc1cc(C(=O)c2ccc3nc(/C=C/C(=O)NO)ccc3c2)cc(OC)c1OC`, the results for the GI50 in the assay on A549 and in the assay with HCT-116 were 3350 nM and 2620 nM, respectively.
Consider `COc1ccc(-c2ccc3nc(/C=C/C(=O)NO)ccc3c2)cc1`, for which the GI50 was determined as 2350 nM with A549 and 1470 nM in the assay on HCT-116. The IC50 result on Histone deacetylase 1 (sf21) was “Not Active”; at Histone deacetylase 2 (read-out: IC50), 1310 nM; in [1] it was 49 nM; at Histone deacetylase 8, 4770 nM. In addition, the Ratio IC50 in the assay filed under Homo sapiens [3] was determined as 27; in the assay listed under Homo sapiens [4], 97. Further, the inhibition entry in assay [5] and in [6] was “Dose-dependent effect” in each case.
As for `O=C(/C=C/c1ccc2cc(Oc3ccc([N+](=O)[O-])cc3)ccc2n1)NO`, the GI50 worked out at 1630 nM in the assay on A549 and 1000 nM with HCT-116. For the same compound, the IC50 was 6050 nM on Histone deacetylase 1 (read-out: IC50), “Not Active” at Histone deacetylase 2, 51.4 nM in assay [1] and 2320 nM at Histone deacetylase 8. Besides, the results for the Ratio IC50 in the assay filed under Homo sapiens [2] and in the assay listed under Homo sapiens [4] were 118 and 45, respectively. Moreover, the inhibition entry in [5] and in assay [6] was “Dose-dependent effect” each time.
`CC(C)c1ccc(Oc2ccc3nc(/C=C/C(=O)NO)ccc3c2)cc1`: the results for the GI50 in the assay with A549 and in the assay with HCT-116 were 3280 nM and 4080 nM, respectively.
Take `O=C(/C=C/c1ccc2cc(-c3ccoc3)ccc2n1)NO`: the GI50 amounted to 1920 nM in the assay on A549 and 1560 nM in the assay with HCT-116.
In the case of `COc1cccc(Oc2ccc3nc(/C=C/C(=O)NO)ccc3c2)c1`, the GI50 came to 4350 nM in the assay on A549 and 2740 nM in the assay with HCT-116.
For `COc1ccc(S(=O)(=O)Nc2ccc3nc(/C=C/C(=O)NO)ccc3c2)cc1` the same measures were 4310 nM and 6680 nM.
Taken in the same sequence, the figures for `O=C(CCCCCCC(=O)Nc1ccccc1)NO` [VORINOSTAT] were 2620 nM and 440 nM.
